# Tests used:
# [1] = test system: raw 264.7 cells; human monocyte; test: In vitro response to phagocyte respiratory burst; format: cell-based; details: 5.0×10^−5 M; PMA or FMLP 100 μg/ml
# Method: No chemiluminescence was detected in the absence of phorbol 12-myristate 13-acetate for (PMA) or N-formylmethionyl-leucyl-phenyl-alanine (FMLP). (a) CL kinetics resulting from the response of probe 3 to respiratory burst of raw 264.7 cells when stimulated with PMA (100 μg/ml). (b) CL kinetics resulting from the response of probe 3 to respiratory burst of human monocyte (10^6 cells/ml) in hank's when stimulated by FMLP (100 μg/ml). The kinetics curves were recorded with an MPI-A Chemiluminescence Analyzer with the use of probe 3 or luminol (5.0×10^−5 M).
# Acute toxicity in mice = details: mouse, in vivo
# Source text: The results are summarized in (a).
# inflammation = test: CLI of inflammation caused by intramuscular injection of PBS; format: in vivo, nude mice; details: PBS intramuscularly two days prior; compared with 18FDG-PET/CT
# Method: Furthermore, inflammation caused by intramuscular injection of PBS was also clearly imaged using probe 3 and in comparison with results using PET/CT (data not shown). Nude mice were intramuscularly injected with PBS two days prior to said imaging experiments. For the verification of the induced inflammation, 18-Fluorodeoxyglucose-Positron emission tomography/Computed tomography (18FDG-PET/CT) scan, from feet to head, was performed 12 h after the CLI experiment. The test mouse was anesthetized with isoflurane inhalation followed by intraperitoneal injection of 3.7 MBq of ^18FDG. An uptake time of 60 min was allowed before acquisition.
# HRP [2] = biological target: T1, HRP (Armoracia rusticana, UniProt P00433); test: CLI of subcutaneously injected HRP in nude mice; format: in vivo
# T1 construct: purchased Sigma-Aldrich
# T1 sequence (P00433 31-338 limits assumed): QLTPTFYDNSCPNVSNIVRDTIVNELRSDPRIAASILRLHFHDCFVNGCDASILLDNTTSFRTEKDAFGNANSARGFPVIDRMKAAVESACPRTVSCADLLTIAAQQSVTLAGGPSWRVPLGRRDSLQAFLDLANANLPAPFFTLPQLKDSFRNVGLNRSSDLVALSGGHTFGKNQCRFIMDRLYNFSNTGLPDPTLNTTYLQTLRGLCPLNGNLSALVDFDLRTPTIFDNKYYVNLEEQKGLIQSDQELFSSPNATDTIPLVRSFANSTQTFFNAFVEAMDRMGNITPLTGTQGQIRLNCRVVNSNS
# Method: CLI of HRP in the same nude mouse with the use of compound 3 as probe (7.2 mg per kg body weight, intraperitoneally injected). Against PBS-only control in the left foreleg, the total activity of HRP introduced into the right foreleg, the left hind leg, and the right hind leg were 0.0250, 0.125, and 0.250 U, respectively. The moment when the administration of 3 was completed was set as −20 min (panel (i)) with 0 min (panel (ii)) being the moment when the subcutaneous injection of HRP was finished. The circles in panel (ii) indicate both the sites of HRP introduction and the ROI for which photon-counting integration was performed.
# Imaging of HRP was acquired in nude mice pre-injected with compound 3 (720 μg per kg body weight) against a control mouse intraperitoneally injected with luminol. […] To achieve significant CL intensity and to assure the accuracy of photon counting, the probe at a concentration of 720 μg/kg was used in subsequent studies in nude mice whose right foreleg, left hind leg, and right hind leg were injected with HRP of a total activity of 12.5 U, 25.0 U, and 50.0 U, respectively. Significant luminescence was produced and remained stable in a time window of 40 to 120 minutes following the introduction of HRP in each of the legs (data not shown).
# In subsequent experiments, a dose of 7.2 mg/kg of compound 3 was used with which a total activity of HRP as low as 0.025 U could be detected. The CL produced intensified as the concentration of HRP increased, yielding a positive linear relationship.
# Nude mice used in this work, each weighing 20-26 g, were obtained from the Laboratory Animal Center of the Fourth Military Medical University, China. Research and animal sacrifice protocols are in accordance with the principles and guidelines adopted by the Fourth Military Medical University. The mice were kept for an acclimatization period of 7 days under laboratory conditions (temperature maintained at 22±2° C., 12-hr cycles of alternating illumination and darkness, and free access to food and water) prior to any imaging experiments. […]
# [3] = In vitro chemiluminescence from oxidation by non-H2O2 ROS; details: PBS pH 7.4, ROS 1.0×10^−3 M, probe 1.0×10^−6 M
# Method: (§1) Solutions of 3 and luminol were prepared in 0.01 M PBS (pH of 7.4). For all ROS other than H2O2, the reaction was carried out by mixing 200 μL of the ROS solution (1.0×10^−3 M) with 800 μL of the solution of probe 3 or luminol (1.0×10^−6 M). The voltage of the photomultiplier tube (PMT) was set at −400 V. In the case of H2O2, 200 μL of its solution (1.0×10^−2 M) was used, and the voltage of PMT was set at −800 V; the other conditions were identical to those used for the other ROS.
# acute dermatitis = test: CLI of acute dermatitis induced by dimethylbenzene; format: in vivo, mice; details: 720 μg/kg; 30, 60, 90 min
# [4] = mouse, in vivo
# Method: Nude mice (24-26 g) were anesthetized followed by intraperitoneal injection of 3 or 2 (in 0.01 M PBS pH 7.4) using a dose of 660 μg of 3 or 2 per kilogram of the mouse body weight. The mice were housed individually and received food ad libitum. Urine was collected every 1 to 2 hours, and the collected samples were diluted to appropriate concentration with PBS. Probe 3 in each urine sample was quantified by comparing the intensity of its chemiluminescence resulting from its oxidation by NaClO with those of standard solutions. […] The potential toxicity of the probe was further evaluated with a sample of 50 mice using a dose of probe 3 at 72 mg/kg body weight of mouse.
# HRP [5] = test: Oxidation by H2O2 catalyzed by trace HRP in vitro; format: biochemical, horseradish
# HRP-Ab = biological target: T2, HRP-Ab (Armoracia rusticana, UniProt P00433); test: CLI of HRP-labeled goat anti-mouse IgG (HRP-Ab) in nude mice; format: in vivo
# T2 construct: purchased ZSGB-Bio Inc. ZB2305
# T2 sequence (P00433 31-338 limits assumed): T1 sequence (P00433 31-338 limits assumed)
# Method: The use of the probe was validated using an enzyme-linked immunosorbent assay (ELISA) by imaging in nude mice the HRP-labeled goat anti-mouse IgG (HRP-Ab), a commercially available and commonly used HRP-antibody conjugate. To assess the sensitivity of the CLI, different amounts of the conjugate were administered to three of the legs of a nude mouse with the left foreleg injected with PBS only being the control. […] The brightness of the emission is proportional to the amount of HRP-Ab present. […] However, in the two hind legs, whose total activity of HRP is at 0.015 and 0.030 U, respectively, the emission of light was vivid, and the reduction in luminescence intensity was only about 10% after 60 minutes following the probe administration.
# Nude mice used in this work, each weighing 20-26 g, were obtained from the Laboratory Animal Center of the Fourth Military Medical University, China. Research and animal sacrifice protocols are in accordance with the principles and guidelines adopted by the Fourth Military Medical University. The mice were kept for an acclimatization period of 7 days under laboratory conditions (temperature maintained at 22±2° C., 12-hr cycles of alternating illumination and darkness, and free access to food and water) prior to any imaging experiments. Nude mice were anesthetized by isoflurane inhalation, following which 200 μL of a solution of compound 3 or luminol in PBS of pH 7.4 was injected intraperitoneally. For the imaging of HPR or HRP-Ab, the probe solution (2.0×10^−3 M) was first injected, followed by the subcutaneous injection 20 minutes after of PBS and HRP (variable amount in 0.01 M PBS) solutions into the legs of nude mice. The control experiments with the use of luminol were conducted under otherwise identical conditions. IVIS 200 bioluminescence imaging system (Caliper Life Sciences) (f/stop, 1; no optical filter) was used for all imaging experiments. Exposure time was set at 5 minutes with moderate sensitivity, and the binning and field of view (FOV) are 8 and 13.3 cm, respectively. […]
# [6] = test system: mechanical crush and syringe needle piecing; test: CLI of mechanical injuries on the tail; format: in vivo, mice; details: 200 μL of 2.0×10^−4 M; 0, 20, 40 min
# Method: (§2) Additional experiments were carried out using test mice suffering from gingival hemorrhage and mechanical injury. For example, nude mice were fed with cooked yolk for 1 week until gingival hemorrhage was visually identified. Various images were acquired (e.g., 0, 20 (supine position), and 30 min (prone position)) after the injection of 200 μL of 2.0×10^−4 M probe 3 or luminol (data not shown). […] Also, images of injuries (e.g., mechanical crush and syringe needle piecing, both on the end to tail) were acquired 0, 20, and 40 min, respectively, after the injection of 200 μL of probe 3 (2.0×10^−4 M).
# gingival hemorrhage = test: CLI of gingival hemorrhage; format: in vivo, nude mice; details: 200 μL of 2.0×10^−4 M
# Method: as §2
# [7] = Solubility in alkaline and PBS solutions; format: physicochemical; details: alkaline and phosphate-buffered saline solutions (PBS, pH=7.4)
# Method: Oxidation of compound 3 was accompanied by vivid green luminescence when the excited oxidation product (compound 2) underwent deactivation (see FIG. 1).
# Solids of compound 3 or luminol were dissolved in 0.01 M NaOH to a final concentration of 8.0×10^−3 M, and the resulting solutions were stored at 4° C. in the absence of light. The solutions were further diluted by using sterile phosphate-buffered saline (PBS, 0.01 M and pH 7.4) as desired in various studies. PMA was dissolved in DMSO to prepare 500 µg/ml solution. HRP was freshly prepared by dilution using sterile PBS.
# [8] = In vitro chemiluminescence kinetics of oxidation by H2O2
# Method: as §1
smiles,measurement,setting,value
O=C(O)c1cc2c(=O)[nH][nH]c(=O)c2cc1-c1c2ccc(=O)cc-2oc2cc(O)ccc12 [compound 3],sensitivity for detection of ROS compared with luminol,[1],much more sensitive
same,acute toxicity,Acute toxicity in mice,does not appear that the probe or the resulting luminophore has significant acute toxicity
same,imaging of inflammation,inflammation,clearly showed inflammation
same,HRP activity at which production of CL appeared saturated,HRP [2]; 720 μg/kg,about 25.0 U
same,lowest total activity of HRP detected,HRP [2]; 7.2 mg/kg,≤ 0.025 U
same,dosage at which CL could be detected,HRP [2]; mice,about 2 μg/kg
same,CL response / sensitivity to ROS compared with luminol,[3],more sensitive
same,CL response / sensitivity to ROS compared with luminol,[3]; listed as probe 3,much stronger responses
same,CLI of acute dermatitis,acute dermatitis,highly efficient
same,metabolism during the imaging procedure,[4],not quickly metabolized
same,"uptake, IP versus IV injection",[4],comparable uptakes
same,probe cleared by uresis,[4]; nude,about 90%
same,luminescence from oxidation by H2O2,HRP [5]; HRP 5.0×10−5 mg/mL added,intense emission of a green light
same,luminescence from oxidation by H2O2,"HRP [5]; no HRP, probe 5.0×10^−3 M, H2O2 1.0×10^−4 M",no detectable luminescence
same,reduction in luminescence intensity,"HRP-Ab; 7.2 mg/kg IP, hind legs 0.015 and 0.030 U, after 60 minutes",about 10%
same,luminescence at HRP-Ab site,"HRP-Ab; hind legs, 0.015 and 0.030 U",vivid
same,luminescence at HRP-Ab site,"HRP-Ab; right foreleg, 0.0030 U HRP-Ab",inadequate to produce any significant photon count or luminescence
same,identification of sites of inflammation by luminescence,[6],clearly identified
same,identification of sites of inflammation by luminescence,gingival hemorrhage,clearly identified
same,solubility,[7],readily soluble
same,duration of luminescence,"[8]; H2O2 1.0×10^−2 M, PMT −800 V",more than 18 days
same,sensitivity toward H2O2 compared with the other ROS,[8]; PMT −800 V needed for detection,insensitivity
"Nc1cccc2c(=O)[nH][nH]c(=O)c12 [luminol, Luminol, reference compound]",CLI of acute dermatitis,acute dermatitis,failed to produce any detectable signals
same,time for luminescence to decay to the baseline,"[8]; H2O2 1.0×10^−2 M, PMT −800 V",about 600 s

# Source: patent US10912846B2, “Molecular probes for chemiluminescence imaging and in vivo detection of target molecules” (ARIZONA BOARD OF REGENTS ON BEHALF OF THE UNIVERSITY OF …, priority 2015, dated 2021)
